Source: US9757350B2, “Small molecule inhibitors of replication protein A that also act synergistically with cisplatin” (Indiana University Research and Technology Corp., priority 2010, dated 2017)

Columns and labels:
[1] = molecular target: T1, full-length heterotrimeric RPA (Homo sapiens, UniProt P27694); test: Reversibility of full-length RPA inhibition: dialysis, then EMSA; format: binding; conditions: overnight dialysis, then EMSA with 34-base DNA
T1 construct: Human full-length, un-tagged heterotrimeric RPA (RPA) was purified as previously describe; made in house
Description: Considering the differential inhibition observed between the anhydride and halo esters with respect to specificity, experiments were carried out to determine if the isoborneol halo-esters inhibited full-length RPA in an irreversible fashion. Full-length RPA was mixed with MCI13E or vehicle control and the reaction mixtures were then dialyzed overnight. Referring now to FIG. 5. Gel showing irreversible inactivation of full-length heterotrimeric RPA by MCI13E. Incubation of RPA with MCI13E, dialysis and recovery was performed as described for FIG. 3. DNA binding activity of the resulting protein was assessed by EMSA using a 5′-[^32P]-ss 34-base DNA as described in “Methods”. Lanes 1-4 pre-dialysis, lanes 5 and 6 post dialysis. […] In fact, the degree of inhibition was similar to that observed for the MCI13E treated RPA before dialysis (FIG. 5 lanes 3 and 4). […] This activity is consistent with MCI13E and F and their reaction with RPA serving as a pharmacodynamic marker of RPA inhibition or as a biomarker for RPA expression and activity.
In order to assess the reversibility of select SMIs, the indicated SMI was pre-incubated with RPA or the DBD-A/B construct for 30 minutes at room temperature. […] The resulting protein was recovered and concentration determined by Bradford analysis. […]

[2] = tested on: NSCLC cell lines A549 and H460; test: Apoptosis by Annexin V/PI staining, NSCLC cell lines; format: cell-based; conditions: 48 hours
Description: Referring now to FIG. 11A. Gel showing effect of MCI13E on DNA-RPA binding. […] Cytotoxicity was analyzed via crystal violet analysis as described in “methods” 48 hours following MCI13E treatment. Data represent the average and standard deviation of four replicate experiments with each replicate containing triplicate determinations and the circles represent data from H460 cells and squares A549 cells. Referring now to FIG. 11C. Graph of MCI13E induced death via apoptosis in NSCLC cell lines. Cell were treated with the indicated concentrations of MCI13E for 48 hours and analyzed for the induction of apoptosis via Annexin V/PI staining Referring now to FIG. 11D. Graph of cell survival as a function of [MCI1EC]. Percent survival was calculated for each cell line using untreated cells as a control. […]
Flow Cytometry—After determining the SMI cytotoxicity, H460, A549 and H1299 lung cancer cell lines were analyzed for apoptosis using the Annexin V-FITC/Propidium Iodide (PI) Vybrant® Apoptosis Assay kit (Invitrogen, Gaithersburg, Md.). […] Following treatment, both adherent and non-adherent cells were collected, processed via the manufacturer's protocol (Invitrogen) and analyzed on a FACScan flow cytometer (Becton Dickson, San Jose, Calif.). Data was analyzed using WinDMI software (The Scripps Research Institute, Can Diego, Calif.) and results are presented as a percentage of control (untreated cells).

H1299 cells [3] = test: Apoptosis by Annexin V/PI staining, H1299; format: cell-based; conditions: H1299, Annexin V and propidium iodine staining
Description: Referring now to FIG. 13A. Cell Viability and Apoptosis of Ovarian and p53 null Lung Cancer Cell Lines. A) Ovarian cancer cell line A2780 and the p53 null lung cancer cell line, H1299, were treated with log dosing of MCI13E and viability analyzed via CCK-8 metabolic assay as described in Methods. Data is presented as cell survival which was determined as a percent of the untreated control cells and represents the average and standard deviation of triplicate experiments Referring now to FIG. 13B.
Flow Cytometry—After determining the SMI cytotoxicity, H460, A549 and H1299 lung cancer cell lines were analyzed for apoptosis using the Annexin V-FITC/Propidium Iodide (PI) Vybrant® Apoptosis Assay kit (Invitrogen, Gaithersburg, Md.). Cells were plated in 6-well dishes (2×10^5 cells total), treated for 24 (H1299) or 48 (H460 and A549) hours with increasing concentrations of SMI. Following treatment, both adherent and non-adherent cells were collected, processed via the manufacturer's protocol (Invitrogen) and analyzed on a FACScan flow cytometer (Becton Dickson, San Jose, Calif.). Data was analyzed using WinDMI software (The Scripps Research Institute, Can Diego, Calif.) and results are presented as a percentage of control (untreated cells).

A549 cells = test: Cell cycle analysis by PI staining, A549; format: cell-based; conditions: A549, increasing doses
Description: (§1) Referring now to FIG. 12A and FIG. 12B. Cell Cycle Analysis of Lung Cancer Cell Lines Following Treatment with MCI13E. A549. Referring now to FIG. 12C, and FIG. 12D. H460 were treated as indicated and analyzed for the cell cycle distribution using PI staining and flow cytometry. Quantification of data following 6 hours and 12 hour treatment with 10 and 20 μM MCI13E was performed for both A549 (FIG. 12E) and H460 (FIG. 12F) Data presented represent the averages of three replicate experiments.
(§2) Cell cycle analysis was also performed on the three lung cancer cell lines using PI staining to identify the potential arrest resulting from treatment with SMIs. Briefly, cells were plated in 6-well dishes (2×10^5 cells total) and treated for 6 or 12 hours with increasing concentration of inhibitor. Adherent and non-adherent cells were collected, washed twice with PBS containing 2% bovine serum albumin (BSA), resuspended in 70% cold EtOH and incubated overnight at −20° C. Cells were again collected and stained with PI (1 μg/mL) and RNaseA (25 μg/mL) for 30 min. at 37° C. followed by 1.5 hours at 4° C. in the dark. Flow cytometry was performed as above and data were analyzed on a histogram with events plotted against the FL2-A parameter. Cell cycle distribution was analyzed using the ModFit software and data presented represents three independent trials.

H460 cells = test: Cell cycle analysis by PI staining, H460; format: cell-based; conditions: H460, increasing doses
Description: as §1, §2

H1299 cells [4] = test: Cell cycle analysis by PI staining, H1299; format: cell-based; conditions: 6, 12 and 24 hours of treatment
Description: as §2, with “Briefly, cells were plated in 6-well dishes (2×10^5 cells total) and treated for 6 or 12 hours with increasing concentration of inhibitor.” left out

T1 sequence (P27694 whole entry): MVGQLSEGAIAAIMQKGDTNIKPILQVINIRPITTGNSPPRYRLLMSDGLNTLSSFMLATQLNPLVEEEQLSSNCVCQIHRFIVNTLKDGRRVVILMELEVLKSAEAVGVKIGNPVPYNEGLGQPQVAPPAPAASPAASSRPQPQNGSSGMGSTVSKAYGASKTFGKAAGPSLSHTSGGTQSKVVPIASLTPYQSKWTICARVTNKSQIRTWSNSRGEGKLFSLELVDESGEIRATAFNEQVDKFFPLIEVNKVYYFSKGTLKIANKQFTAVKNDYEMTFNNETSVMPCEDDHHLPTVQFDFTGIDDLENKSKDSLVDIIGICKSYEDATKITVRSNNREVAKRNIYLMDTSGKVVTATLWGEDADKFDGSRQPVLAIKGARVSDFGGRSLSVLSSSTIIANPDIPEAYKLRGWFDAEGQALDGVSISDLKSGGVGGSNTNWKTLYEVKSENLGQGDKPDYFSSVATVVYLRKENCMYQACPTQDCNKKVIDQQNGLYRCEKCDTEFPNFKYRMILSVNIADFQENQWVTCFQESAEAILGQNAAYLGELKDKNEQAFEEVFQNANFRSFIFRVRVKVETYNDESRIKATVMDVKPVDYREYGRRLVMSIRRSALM
T1 sequence (P15927 whole entry partner): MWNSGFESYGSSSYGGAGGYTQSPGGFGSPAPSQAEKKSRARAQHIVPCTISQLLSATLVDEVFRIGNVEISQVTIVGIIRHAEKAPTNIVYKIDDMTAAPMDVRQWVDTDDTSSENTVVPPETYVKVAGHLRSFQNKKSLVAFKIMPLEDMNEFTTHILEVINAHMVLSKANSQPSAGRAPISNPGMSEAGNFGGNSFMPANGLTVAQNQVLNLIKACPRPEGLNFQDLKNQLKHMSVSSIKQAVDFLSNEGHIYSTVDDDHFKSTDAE
T1 sequence (P35244 whole entry partner): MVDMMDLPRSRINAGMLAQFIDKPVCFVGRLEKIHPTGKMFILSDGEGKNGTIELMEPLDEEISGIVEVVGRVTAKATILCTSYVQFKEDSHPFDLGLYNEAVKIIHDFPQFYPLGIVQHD

CC1(C)C2CCC1(C)C(OC(=O)CBr)C2 (racemic) [MCI13E, (+/−)-Isobornyl bromoacetate]
Reversibility of full-length RPA inhibition [1]: inhibition was not reversed by dialysis
Mode of cell death [2]: induces death via classical apoptosis
Induction of apoptosis (H1299 cells [3]): indicative of the induction of apoptosis
Cell cycle distribution (A549 cells): greater proportion of cells in the G1 phase
Cell cycle distribution (H460 cells): increase in the proportion of cells in S-phase
Cell cycle distribution (H1299 cells [4]): increased percentage of cells accumulated in S-phase
